Assay [1] concerns the target T1, human Oxytocin (hOT) receptor (Homo sapiens, UniProt P30559).
T1 construct: expressed in transfected cells; host or cells: HEK293EBNA (membranes)
T1 sequence (P30559 1-389): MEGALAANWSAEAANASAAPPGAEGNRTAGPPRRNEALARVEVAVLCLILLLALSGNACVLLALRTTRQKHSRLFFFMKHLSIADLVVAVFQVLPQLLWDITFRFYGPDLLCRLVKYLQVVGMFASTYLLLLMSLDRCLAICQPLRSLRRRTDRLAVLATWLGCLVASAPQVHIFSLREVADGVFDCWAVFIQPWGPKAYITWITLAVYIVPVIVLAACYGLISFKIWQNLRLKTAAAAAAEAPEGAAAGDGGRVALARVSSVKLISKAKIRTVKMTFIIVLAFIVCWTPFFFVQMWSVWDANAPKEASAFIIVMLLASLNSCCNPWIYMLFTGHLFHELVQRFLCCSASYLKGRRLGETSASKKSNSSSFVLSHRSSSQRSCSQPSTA
Briefly: In vitro competition binding assay on hOT receptor with scintillation proximity assay. Conditions: inhibition of [125I]-OVTA binding, membranes from HEK293EBNA cells expressing hOT receptor; read-out: Binding Affinity hOT-R (Ki [nM]). On the procedure:
The compounds according to Formula I may be subjected to the following assays: • a) In vitro Competition Binding Assay on hOT Receptor with Scintillation Proximity Assay (11).
This assay allows to determine the affinity of the test compounds for the human Oxytocin (hOT) receptor. Membranes from HEK293EBNA (cells expressing the hOT receptor) were suspended in buffer containing 50 mM Tris-HCl, pH 7.4, 5 mM MgCl2 and 0.1% BSA (w/v). The membranes (2–4 μg) were mixed with 0.1 mg SPA bead coated with wheat-germ aglutinin (WGA-PVT-Polyethylene Imine beads from Amersham) and 0.2 nM of the radiolabelled [^125I]-OVTA (OVTA being Ornithin Vasoactive, an analogue of OT for competitive binding experiments). Non-specific binding was determined in the presence of 1 μM Oxytocin. The total assay volume was 100 μl. The plates (Corning® NBS plate) were incubated at room temperature for 30 min and counted on a Mibrobeta® plate scintillation counter. Competitive binding was performed in presence of compounds of formula (I) at the following concentrations: 30 μM, 10 μM, 1 μM, 300 nM, 100 nM, 10 nM, 1 nM, 100 pM, 10 pM. The competitive binding data were analysed using the iterative, nonlinear, curve-fitting program, “Prism” (GraphPad Software, Inc).
The ability of pyrrolidine derivatives of formula (I) to inhibit the binding of ^125-OVTA to the OT-receptor was assessed using the above described in vitro biological assay. Representative values for some example compounds are given in Table I where the binding affinity of test compounds from the above examples is expressed by the inhibition constant (Ki; nM). From these values, it can be derived that said test compounds according to formula I do show a significant binding to the oxytocin receptor.
A general note: SPA uses beads or plates that emit light when radiolabelled molecules are held near them.

The target in assay [2] is T2, hOT receptor (HEK293EBNA cells expressing the hOT receptor) (Homo sapiens, UniProt P30559).
T2 construct: expressed in transfected cells; host or cells: HEK293EBNA
T2 sequence (P30559 1-389): T1 sequence (P30559 1-389)
Put plainly: Functional assay No. 1: inhibition of oxytocin mediated Ca2+-mobilization by FLIPR. In kind it is cell-based. The conditions noted are these: OT 40 nM, fluo-4, read-out: Inhibition of Ca2+ mobilisation, hOT-R IC50. A general note: A change in cytosolic calcium serves as a functional read-out for many receptors and channels.
Procedure: This assay allows the measurement of the inhibition of OT/OT-R mediated calcium mobilization by test compounds of formula (I).
Preparing the plates: FLIPR-plates were pre-coated with PLL (Poly-L-Lysine) 10 μg/ml+0.1% gelatine to attach HEK293EBNA cells (Human Embryonic Kidney cells expressing the hOT receptor) and incubated for 30 min up to 2 days at 37° C. The cells were plated out into 96-well-plates (60000 cells/well).
Labelling with fluo-4: 50 μg of fluo-4 (Ca2+ sensitive fluorescent dye) were dissolved in 20 μl pluronic acid (20% in DMSO). The dissolved fluo-4 was then diluted in 10 ml DMEM (Dubecco's Minimal Essential Medium)-F12 culture medium. The plates were washed one time with DMEM-F12 medium. […] Fluo-4 is taken up by the cytoplasm of the cells. […]
The relative fluorescence of Fluo-4 (λex=488 nm, λem=590 nm) is then measured by the FLIPR in presence or absence of compounds of formula (I). The fluorescence of the marker being sensitive to the amount of Ca^2+, the Ca^2+ movements can be detected. Then, it can be determined the ability of compounds of formula (I) to antagonize the oxytocin-induced intracellular Ca^2+-mobilization mediated by the oxytocin receptor.
The activities of the pyrrolidine derivatives according to formula I were assessed using the above described in vitro biological assay. […]

For assay [3], the system named is oxytocin-induced uterine contractions in the rat. Put plainly: In vivo model for inhibition of uterine contractions. Conditions: 40 min after test compound administration. On the procedure:
The ability of compounds of formula (I) to effectively antagonize oxytocin-induced IP3-synthesis mediated by the oxytocin receptor, can be assessed using the above described in vitro biological assay. • d) In vivo Model for Inhibition of Uterine Contractions
The assay evaluates the biological effect of tested compounds in an in vivo model of preterm labor, premature birth.
Non-pregnant Charles River CD (SD) BR female rats (9–10 weeks old, 200–250 g) were treated at 18 and 24 hours before the experiment with 250 μg/kg, i.p. diethylstilbestrol (DES). For the assay, the animal was anaesthetised with urethane (1.75 g/kg, i.p.) and placed on a homeothermic operating table. The trachea was isolated and cannulated with a suitable polyethylene (PE) tubing. […]
The contractile response of the uterus to oxytocin was quantified by measuring the intra-uterine pressure and the number of contractions. The effect of the reference and test compounds was evaluated by comparing pre- and post-treatment pressure values. In addition, contractions of the uterine were measured at 5, 40, 75, 110, 145 and 180 minutes after test compound administration.
The activities of the pyrrolidine derivatives claimed in the Formula I can be assessed using the above described in vivo biological assay. […]

Molecules are shown by their SMILES.

For orientation: Ki means a dissociation constant, usually derived from enzyme kinetics or from competition with a known ligand. In general, IC50 refers to the midpoint of a concentration-inhibition curve. Turning to `CON=C1C[C@@H](CO)N(C(=O)c2ccc(-c3ccccc3)cc2)C1` [Compound 2, (3EZ,5S)-1-(1,1′-biphenyl-4-ylcarbonyl)-5 (hydroxymethyl) pyrrolidin-3-one O-methyloxime], the inhibitory constant (Ki) in assay [1] came out at 139 nM. Further, the IC50 in assay [2] is 90 nM. In addition, the “% Reduction of Uterine Contraction” value is recorded as 39.8 ± 10.0% in assay [3] (10 mg/kg per i.v.) and 50.9 ± 8.6% in assay [3] (30 mg/kg per os). For `CO/N=C1/C[C@@H](CO)N(C(=O)c2ccc(-c3ccccc3)cc2)C1` [Compound 4, (3Z,5S)-1-(1,1′-biphenyl-4-ylcarbonyl)-5-(hydroxymethyl) pyrrolidin-3-one O-methyloxime], the inhibition constant (Ki) in assay [1] was 94.9 nM. Besides, in assay [2], the concentration for half-maximal inhibition (IC50) is 10 nM. On to `CON=C1C[C@@H](COCC(=O)NCCN2CCCC2)N(C(=O)c2ccc(-c3ccccc3)cc2)C1` [Compound 7, 2-{[(2S,4EZ)-1-(1,1′-biphenyl-4-ylcarbonyl)-4-(methoxyimino)pyrrolidin-2-yl]methoxy}-N-(2-pyrrolidin-1-ylethyl)acetamide], for which the inhibition constant Ki in assay [1] worked out at 140 nM. As to `COC[C@@H]1CC(=NOC)CN1C(=O)c1ccc(-c2ccccc2)cc1` [Compound 8, (3EZ,5S)-1-(1,1′-biphenyl-4-ylcarbonyl)-5-(methoxymethyl)pyrrolidin-3-one O-methyloxime], the Ki in assay [1] turned out to be 55 nM. On the same count and under the same terms, in the case of `CON=C1C[C@@H](CN2C(=O)c3ccccc3C2=O)N(C(=O)c2ccc(-c3ccccc3)cc2)C1` [Compound 12, 2-{[(2S,4EZ)-1-(1,1′-biphenyl-4-ylcarbonyl)-4-(methoxyimino)pyrrolidin-2-yl]methyl}-1H-isoindole-1,3(2H)-dione] it was 5.1 nM; in that of `CON=C1C[C@@H](CCO)N(C(=O)c2ccc(-c3ccccc3)cc2)C1` [Compound 16, (3EZ,5S)-1-(1,1′-biphenyl-4-ylcarbonyl)-5-(2-hydroxyethyl)pyrrolidin-3-one O-methyloxime], 120 nM.

Source of the values: patent publication US7115754B2, “Pyrrolidine derivatives as oxytocin antagonists” (Applied Research Systems ARS Holding N.V., priority 2002, dated 2006).
